In patent US8067445B2, “N,N-disubstituted aminoalkylbiphenyl antagonists of prostaglandin D2 receptors” (Panmira Pharmaceuticals, LLC, priority 2008, dated 2011):

Target: T1, human DP2 receptor (Homo sapiens, UniProt Q9Y5Y4)
T1 construct: expressed in transfected cells
T1 sequence (Q9Y5Y4 1-395): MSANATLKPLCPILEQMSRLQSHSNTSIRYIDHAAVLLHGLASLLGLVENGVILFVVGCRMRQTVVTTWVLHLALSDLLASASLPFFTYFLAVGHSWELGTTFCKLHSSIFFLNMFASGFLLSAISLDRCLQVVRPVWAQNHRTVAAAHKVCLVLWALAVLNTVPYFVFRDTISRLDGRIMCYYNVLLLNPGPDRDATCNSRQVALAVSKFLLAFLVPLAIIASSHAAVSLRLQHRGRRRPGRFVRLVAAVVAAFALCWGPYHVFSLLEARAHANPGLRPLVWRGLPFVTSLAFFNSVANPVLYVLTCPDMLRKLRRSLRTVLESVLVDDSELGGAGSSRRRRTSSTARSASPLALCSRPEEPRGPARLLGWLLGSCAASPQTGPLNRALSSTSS
Assay: DP2/CRTH2 radioligand binding assay ([3H]PGD2)
Details: [3H]PGD2 binding, membranes of HEK293 cells expressing human DP2; read-out: hDP2
Method: The ability of a compound to bind to the human DP2 receptor is assessed via a radioligand binding assay using [^3H]PGD2. HEK293 cells stably expressing recombinant human DP2 are resuspended in 10 mM Hepes, 7.4 containing 1 mM DTT, lysed and centrifuged at 75,000×g to pellet the membranes. The membranes are resuspended in 10 mM Hepes, 7.4 containing 1 mM DTT and 10% glycerol to approximately 5 mg protein/ml. Membranes (2-10 μg protein/well) are incubated in 96-well plates with 1 nM [^3H]PGD2 and test compound in Assay Buffer (50 mM Hepes, 10 mM MnCl2, 1 mM EDTA, plus or minus 0.2% human serum albumin, pH 7.4) for 60 minutes at room temperature. The reactions are terminated by rapid filtration through Whatman GF/C glass fibre filter plates. The filter plates were pre-soaked in 0.33% polyethylenimine for 30 minutes at room temperature then washed in Wash Buffer (50 mM Hepes, 0.5 M NaCl pH 7.4) prior to harvesting. After harvesting, the filter plates are washed 3 times with 1 ml cold Wash Buffer then dried. Scintillant is then added to the plates and the radioactivity retained on the filters is determined on a Packard TopCount (Perkin Elmer). Specific binding is determined as total radioactive binding minus non-specific binding in the presence of 10 μM PGD2. IC50s were determined using GraphPad prism analysis of drug titration curves.

Compound	IC50
CCN(Cc1cc(C(F)(F)F)ccc1-c1cc([C@@H](C)C(=O)O)cc(C(F)(F)F)c1)C(=O)NCc1ccccc1 [Compound 1-239, (R)-2-[2′-(3-Benzyl-1-ethyl-ureidomethyl)-5,4′-bis-trifluoromethyl-biphenyl-3-yl]-propionic acid]	< 300 nM
CCN(Cc1ccc(OC)cc1-c1cc(Cl)cc(CC(=O)O)c1)C(=O)C1CC1 [Compound 1-218, {5-Chloro-2′-[(cyclopropanecarbonyl-ethyl-amino)-methyl]-5′-methoxy-biphenyl-3-yl}-acetic acid]	< 300 nM
CCN(Cc1cc(C(F)(F)F)ccc1-c1cc(CC(=O)O)ccc1OC)C(=O)CCc1ccccc1 [Compound 1-208, (2′-{[Ethyl-(3-phenyl-propionyl)-amino]-methyl}-6-methoxy-4′-trifluoromethyl-biphenyl-3-yl)-acetic acid]	< 300 nM
CCN(Cc1ccc(OC)cc1-c1cc(Cl)cc(CC(=O)O)c1)C(=O)NCc1ccccc1 [Compound 1-219, [2′-(3-Benzyl-1-ethyl-ureidomethyl)-5-chloro-5′-methoxy-biphenyl-3-yl]-acetic acid]	< 300 nM
CCN(Cc1cc(C(F)(F)F)ccc1-c1cc(CC(=O)O)ccc1OC)C(=O)NCc1ccncc1 [Compound 1-199, [2′-(1-Ethyl-3-pyridin-4-ylmethyl-ureidomethyl)-6-methoxy-4′-trifluoromethyl-biphenyl-3-yl]-acetic acid]	< 300 nM
CCN(Cc1ccc(OC)cc1-c1cc(CC(=O)O)ccc1OC)C(=O)OCc1ccc(Cl)cc1 [Compound 1-195, (2′-{[(4-Chloro-benzyloxycarbonyl)-ethyl-amino]-methyl}-6,5′-dimethoxy-biphenyl-3-yl)-acetic acid]	< 300 nM
CCN(Cc1cc(-c2ccc3ncccc3c2)ccc1-c1cc(CC(=O)O)ccc1OC)C(=O)NCc1ccccc1 [Compound 1-231, [2′-(3-Benzyl-1-ethyl-ureidomethyl)-6-methoxy-4′-quinolin-6-yl-biphenyl-3-yl]-acetic acid]	< 300 nM
CCN(Cc1cc(C(F)(F)F)ccc1-c1cc(Cl)cc(CC(=O)O)c1)C(=O)c1ccccc1 [Compound 1-203, {2′-[(Benzoyl-ethyl-amino)-methyl]-5-chloro-4′-trifluoromethyl-biphenyl-3-yl}-acetic acid]	< 300 nM
CCN(Cc1cc(C(F)(F)F)ccc1-c1cc([C@H](C)C(=O)N2C(=O)O[C@@H](c3ccccc3)[C@H]2C)ccc1OC)C(=O)C1CC1 [Compound 2-13, Cyclopropanecarboxylic acid ethyl-{2′-methoxy-5′-[(S)-1-methyl-2-((4R,5S)-4-methyl-2-oxo-5-phenyl-oxazolidin-3-yl)-2-oxo-ethyl]-4-trifluoromethyl-biphenyl-2-ylmethyl}-amide]	1000 to 30000 nM
CCN(Cc1cc(C(F)(F)F)ccc1-c1cc(CC(=O)O)ccc1OC)C(N)=O [Compound 1-210, {2′-[(1-Ethyl-ureido)-methyl]-6-methoxy-4′-trifluoromethyl-biphenyl-3-yl}-acetic acid]	< 300 nM
CCOc1ccc(-c2ccc(-c3cc(CC(=O)O)ccc3OC)c(CN(CC)C(=O)Cc3ccccc3)c2)cn1 [Compound 1-255, {4′-(6-Ethoxy-pyridin-3-yl)-2′-[(ethyl-phenylacetyl-amino)-methyl]-6-methoxy-biphenyl-3-yl}-acetic acid]	< 300 nM
CCN(Cc1cc(C(F)(F)F)ccc1-c1cc(C(C)C(=O)O)ccc1OC)C(=O)NC1CC1 (stereo not drawn) [Compound 1-243, 2-[2′-(3-Cyclopropyl-1-ethyl-ureidomethyl)-6-methoxy-4′-trifluoromethyl-biphenyl-3-yl]-propionic acid]	< 300 nM
CCN(Cc1cc(C(F)(F)F)ccc1-c1cc(Cl)cc(CC(=O)O)c1)C(=O)OCc1ccc(Cl)cc1 [Compound 1-188, (5-Chloro-2′-{[(4-chloro-benzyloxycarbonyl)-ethyl-amino]-methyl}-4′-trifluoromethyl-biphenyl-3-yl)-acetic acid]	< 300 nM
CCN(Cc1cc(C(F)(F)F)ccc1-c1cc(CC(=O)O)cc(C(F)(F)F)c1)C(=O)c1ccccc1 [Compound 1-204, {2′-[(Benzoyl-ethyl-amino)-methyl]-5,4′-bis-trifluoromethyl-biphenyl-3-yl}-acetic acid]	< 300 nM
CCN(Cc1ccc(OC)cc1-c1cc(CC(=O)O)ccc1OC)C(=O)NCc1ccccc1 [Compound 1-197, [2′-(3-Benzyl-1-ethyl-ureidomethyl)-6,5′-dimethoxy-biphenyl-3-yl]-acetic acid]	< 300 nM
CCN(Cc1cc(C(F)(F)F)ccc1-c1cc(CC(=O)O)ccc1OC)C(=O)C(C)(C)C [Compound 1-245, (2′-{[(2,2-Dimethyl-propionyl)-ethyl-amino]-methyl}-6-methoxy-4′-trifluoromethyl-biphenyl-3-yl)-acetic acid]	1000 to 30000 nM
CCN(Cc1cc(C(F)(F)F)ccc1-c1cc([C@H](C)C(=O)N[C@H](C)Cc2ccccc2)cc(C(F)(F)F)c1)C(=O)NCc1ccccc1 [Compound 2-11, (S)-2-[2′-(3-Benzyl-1-ethyl-ureidomethyl)-5,4′-bis-trifluoromethyl-biphenyl-3-yl]-N—((R)-1-methyl-2-phenyl-ethyl)-propionamide]	< 300 nM
CCN(Cc1ccc(OC)cc1-c1cc(Cl)cc(CC(=O)O)c1)C(=O)COc1ccc(Cl)cc1 [Compound 1-221, [5-Chloro-2′-({[2-(4-chloro-phenoxy)-acetyl]-ethyl-amino}-methyl)-5′-methoxy-biphenyl-3-yl]-acetic acid]	< 300 nM
CCN(Cc1cc(C(F)(F)F)ccc1-c1cc([C@H](C)C(=O)N2C(=O)O[C@@H](c3ccccc3)[C@H]2C)cc(C(F)(F)F)c1)C(=O)C1CC1 [Compound 2-16, Cyclopropanecarboxylic acid ethyl-{3′-[(S)-1-methyl-2((4R,5S)-4-methyl-2-oxo-5-phenyl-oxazolidin-3-yl)-2-oxo-ethyl]-4,5′-bis-trifluoromethyl-biphenyl-2-ylmethyl}-amide]	1000 to 30000 nM
CCOC(=O)Cc1ccc(OC)c(-c2ccc(C(=O)O)cc2CN(CC)C(=O)OCc2ccccc2)c1 [Compound 2-14, 2-[(Benzyloxycarbonyl-ethyl-amino)-methyl]-5′-ethoxycarbonylmethyl-2′-methoxy-biphenyl-4-carboxylic acid]	1000 to 30000 nM
CCN(Cc1cc(-c2ncc(OC)cn2)ccc1-c1cc(CC(=O)O)ccc1OC)C(=O)C1CC1 [Compound 1-250, [2′-[(Cyclopropanecarbonyl-ethyl-amino)-methyl]-6-methoxy-4′-(5-methoxy-pyrimidin-2-yl)-biphenyl-3-yl]-acetic acid]	< 300 nM
CCOc1ccc(-c2ccc(-c3cc(CC(=O)O)ccc3OC)c(CN(CC)C(=O)COc3ccc(Cl)cc3)c2)cn1 [Compound 1-229, [2′-({[2-(4-Chloro-phenoxy)-acetyl]-ethyl-amino}-methyl)-4′-(6-ethoxy-pyridin-3-yl)-6-methoxy-biphenyl-3-yl]-acetic acid]	< 300 nM
CCN(Cc1ccc(OC)cc1-c1cc(CC(=O)O)ccc1OC)C(=O)C1CC1 [Compound 1-196, {2′-[(Cyclopropanecarbonyl-ethyl-amino)-methyl]-6,5′-dimethoxy-biphenyl-3-yl}-acetic acid]	< 300 nM
CCN(Cc1cc(C(F)(F)F)ccc1-c1cc([C@@H](C)C(=O)N[C@H](C)Cc2ccccc2)cc(C(F)(F)F)c1)C(=O)NCc1ccccc1 [Compound 2-10, (R)-2-[2′-(3-Benzyl-1-ethyl-ureidomethyl)-5,4′-bis-trifluoromethyl-biphenyl-3-yl]-N—((R)-1-methyl-2-phenyl-ethyl)-propionamide]	> 30000 nM
CCN(Cc1cc(C(F)(F)F)ccc1-c1cc(Cl)cc(CC(=O)O)c1)C(=O)OCc1ccc(F)cc1 [Compound 1-190, (5-Chloro-2′-{[ethyl-(4-fluoro-benzyloxycarbonyl)-amino]-methyl}-4′-trifluoromethyl-biphenyl-3-yl)-acetic acid]	< 300 nM
CCN(Cc1cc(C(F)(F)F)ccc1-c1cc(CC(=O)O[C@@H]2O[C@H](C(=O)O)[C@@H](O)[C@H](O)[C@H]2O)ccc1OC)C(=O)NCc1ccccc1 [Compound 2-17, (2S,3S,4S,5R,6S)-6-{2-[2′-(3-Benzyl-1-ethyl-ureidomethyl)-6-methoxy-4′-trifluoromethyl-biphenyl-3-yl]-acetoxy}-3,4,5-trihydroxy-tetrahydro-pyran-2-carboxylic acid]	300 to 1000 nM
CCN(Cc1cc(C(F)(F)F)ccc1-c1cc(C(C)C(=O)O)ccc1OC)C(=O)C1CC1 (stereo not drawn) [Compound 1-217, 2-{2′-[(Cyclopropanecarbonyl-ethyl-amino)-methyl]-6-methoxy-4′-trifluoromethyl-biphenyl-3-yl}-propionic acid]	< 300 nM
